In PubChem BioAssay AID248 (DTP/NCI, 2004):
Several values for one entry are separate records, joined by “and”; a condition that tells them apart may be missing. Equal values may be shown once. Inconclusive results and toxic doses are left out.

Tested on: L1210 leukemia ip in BDF1 mice, survival T/C
Assay: NCI In Vivo Anticancer Drug Screen. Data for tumor model L1210 Leukemia (intraperitoneal) in B6D2F1 (BDF1) mice
Settings: endpoint: mean survival time, higher = longer survival
Outline: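 Ratio derived from survival: compound-dosed mice over vehicle-dosed mice, all bearing a transplantable tumor.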

[1] = dose: 100.0 mg/kg/injection, schedule: Q01DX009 (ip), vehicle: saline with Tween-80
[2] = dose: 100.0 mg/kg/injection, schedule: Q04DX002 (ip), vehicle: Klucel (hydroxypropylcellulose) (HPC)
[3] = dose: 200.0 mg/kg/injection, schedule: Q04DX002 (ip), vehicle: Klucel (hydroxypropylcellulose) (HPC)
[4] = dose: 200.0 mg/kg/injection, schedule: Q01DX009 (ip), vehicle: Klucel (hydroxypropylcellulose) (HPC)
[5] = dose: 100.0 mg/kg/injection, schedule: Q04DX003 (ip), vehicle: saline with Tween-80
[6] = dose: 200.0 mg/kg/injection, schedule: Q04DX003 (ip), vehicle: saline with Tween-80
[7] = dose: 100.0 mg/kg/injection, schedule: Q01DX009 (ip), vehicle: saline
[8] = dose: 100.0 mg/kg/injection, schedule: Q04DX003 (ip), vehicle: saline
[9] = dose: 200.0 mg/kg/injection, schedule: Q04DX003 (ip), vehicle: saline
[10] = dose: 400.0 mg/kg/injection, schedule: Q04DX003 (ip), vehicle: saline

CCOC(=O)/C=C(/C)C#N
T/C (dose: 100.0 mg/kg/injection, schedule: Q01DX001 (ip), vehicle: carboxymethylcellulose (CMC)): 103 % of control
T/C (dose: 200.0 mg/kg/injection, schedule: Q01DX001 (ip), vehicle: carboxymethylcellulose (CMC)): 97 % of control
T/C (dose: 400.0 mg/kg/injection, schedule: Q01DX001 (ip), vehicle: carboxymethylcellulose (CMC)): 98 % of control

N#C/C(=C/c1ccccc1Cl)C(N)=O
T/C [1]: 100 % of control
T/C [2]: 100 % of control
T/C (dose: 200.0 mg/kg/injection, schedule: Q01DX009 (ip), vehicle: saline with Tween-80): 94 % of control
T/C [3]: 93 % of control
T/C (dose: 400.0 mg/kg/injection, schedule: Q01DX009 (ip), vehicle: saline with Tween-80): 94 % of control
T/C (dose: 400.0 mg/kg/injection, schedule: Q04DX002 (ip), vehicle: Klucel (hydroxypropylcellulose) (HPC)): 107 % of control

Cc1ccc(NC(=O)Nc2cccc(C(F)(F)F)c2)cc1C
T/C (dose: 100.0 mg/kg/injection, schedule: Q01DX009 (ip), vehicle: Klucel (hydroxypropylcellulose) (HPC)): 98 % of control
T/C [4]: 98 % of control
T/C (dose: 400.0 mg/kg/injection, schedule: Q01DX009 (ip), vehicle: Klucel (hydroxypropylcellulose) (HPC)): 91 % of control

Cn1nc(CC(=O)O)c(C(N)=O)c1N
T/C (dose: 12.5 mg/kg/injection, schedule: Q01DX009 (ip), vehicle: Klucel (hydroxypropylcellulose) (HPC)): 93 % of control
T/C (dose: 25.0 mg/kg/injection, schedule: Q01DX009 (ip), vehicle: Klucel (hydroxypropylcellulose) (HPC)): 101 % of control
T/C (dose: 50.0 mg/kg/injection, schedule: Q01DX009 (ip), vehicle: Klucel (hydroxypropylcellulose) (HPC)): 96 % of control and 102 % of control
T/C [4]: 98 % of control

NC(CS(=O)c1ccc(Cl)cc1)C(=O)O (centres undefined)
T/C [5]: 97 % of control
T/C [6]: 92 % of control

O=C(CCCCCCCCC(=O)N/N=C/c1ccc(Cl)c(Cl)c1)N/N=C/c1ccc(Cl)c(Cl)c1
T/C (dose: 50.0 mg/kg/injection, schedule: Q01DX009 (ip), vehicle: saline with Tween-80): 91 % of control
T/C [1]: 93 % of control
T/C [5]: 89 % of control
T/C [6]: 89 % of control

C=CCNC(=O)/C=C\C(=O)O
T/C [2]: 99 % of control
T/C [3]: 96 % of control

CC1=C(C)C(=O)OC1=O
T/C (dose: 100.0 mg/kg/injection, schedule: Q04DX003 (ip), vehicle: Klucel (hydroxypropylcellulose) (HPC)): 97 % of control
T/C (dose: 200.0 mg/kg/injection, schedule: Q04DX003 (ip), vehicle: Klucel (hydroxypropylcellulose) (HPC)): 98 % of control

CC1(C(=O)O)CCC2(C)CCC3(C)C(=CC(=O)C4C5(C)CCC(OC6OC(C(=O)O)C(O)C(O)C6OC6OC(C(=O)O)C(O)C(O)C6O)C(C)(C)C5CCC43C)C2C1 (centres undefined)
T/C (dose: 50.0 mg/kg/injection, schedule: Q01DX009 (ip), vehicle: saline): 94 % of control
T/C [7]: 91 % of control and 107 % of control and 100 % of control
T/C [8]: 100 % of control
T/C (dose: 200.0 mg/kg/injection, schedule: Q01DX009 (ip), vehicle: saline): 91 % of control and 90 % of control and 94 % of control
T/C [9]: 105 % of control
T/C (dose: 400.0 mg/kg/injection, schedule: Q01DX009 (ip), vehicle: saline): 98 % of control and 93 % of control
T/C [10]: 103 % of control

O=C(Nc1ccccc1)OC1CC=CC1
T/C [8]: 90 % of control
T/C [9]: 92 % of control
T/C [10]: 103 % of control

O=C(CCBr)NCNC(=O)CCBr
T/C (dose: 53.0 mg/kg/injection, schedule: Q04DX003 (ip), vehicle: Klucel (hydroxypropylcellulose) (HPC)): 114 % of control
T/C (dose: 80.0 mg/kg/injection, schedule: Q04DX003 (ip), vehicle: Klucel (hydroxypropylcellulose) (HPC)): 109 % of control
T/C [7]: 86 % of control
T/C [5]: 113 % of control
T/C (dose: 120.0 mg/kg/injection, schedule: Q04DX003 (ip), vehicle: Klucel (hydroxypropylcellulose) (HPC)): 116 % of control
T/C [6]: 117 % of control
T/C (dose: 264.0 mg/kg/injection, schedule: Q04DX003 (ip), vehicle: acetone): 153 % of control
T/C (dose: 266.0 mg/kg/injection, schedule: Q04DX003 (ip), vehicle: Klucel (hydroxypropylcellulose) (HPC)): 154 % of control
T/C (dose: 266.0 mg/kg/injection, schedule: Q04DX003 (ip), vehicle: saline): 114 % of control
T/C (dose: 400.0 mg/kg/injection, schedule: Q04DX003 (ip), vehicle: Klucel (hydroxypropylcellulose) (HPC)): 170 % of control
T/C (dose: 400.0 mg/kg/injection, schedule: Q04DX003 (ip), vehicle: acetone): 113 % of control
T/C (dose: 400.0 mg/kg/injection, schedule: Q04DX003 (ip), vehicle: saline with Tween-80): 151 % of control
T/C [10]: 120 % of control

OCC1OC(n2ncc3c(=S)nc[nH]c32)C(O)C1O (centres undefined)
T/C (dose: 12.5 mg/kg/injection, schedule: Q01DX005 (ip), vehicle: other): 103 % of control
T/C (dose: 25.0 mg/kg/injection, schedule: Q01DX005 (ip), vehicle: other): 95 % of control
T/C (dose: 50.0 mg/kg/injection, schedule: Q01DX005 (ip), vehicle: other): 97 % of control
T/C (dose: 100.0 mg/kg/injection, schedule: Q01DX005 (ip), vehicle: other): 98 % of control
T/C (dose: 200.0 mg/kg/injection, schedule: Q01DX005 (ip), vehicle: other): 98 % of control
